#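 These data come from cells grown in 96-well plates and exposed to compound for 48 hours at five concentrations. Abbreviation: GI50, concentration required for 50% inhibition of growth.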 Active and inactive are the calls of the source. No stated cut-off is given here; in the data, active = GI50 up to about 1.1 µM and inactive = higher.
# How the values were obtained:
# Assay in all cases: DTP human tumour cell line panel, 48 h
# Malme-3M = test system: Malme-3M
# SK-MEL-5 = test system: SK-MEL-5
# HOP-62 = test system: HOP-62
# A549 = test system: A549
# HCT-15 = test system: HCT-15
# RXF 393 = test system: RXF 393
# SK-MEL-2 = test system: SK-MEL-2
# U-251 = test system: U-251
# EKVX = test system: EKVX
# OVCAR-4 = test system: OVCAR-4
# SF-268 = test system: SF-268
# UACC-62 = test system: UACC-62
# CCRF-CEM = test system: CCRF-CEM
# A498 = test system: A498
# SN12C = test system: SN12C
# HOP-92 = test system: HOP-92
# MCF7 = test system: MCF7
# MDA-N = test system: MDA-N
# NCI-H522 = test system: NCI-H522
SMILES,GI50 (Malme-3M),GI50 (SK-MEL-5),GI50 (HOP-62),GI50 (A549),GI50 (HCT-15),GI50 (RXF 393),GI50 (SK-MEL-2),GI50 (U-251),GI50 (EKVX),GI50 (OVCAR-4),GI50 (SF-268),GI50 (UACC-62),GI50 (CCRF-CEM),GI50 (A498),GI50 (SN12C),GI50 (HOP-92),GI50 (MCF7),GI50 (MDA-N),GI50 (NCI-H522)
CN1CN(c2ccccc2)C2(CCN(Cc3nc4ccccc4s3)CC2)C1=O,17.8 µM (inactive),16.1 µM (inactive),16.6 µM (inactive),17.3 µM (inactive),18.8 µM,14.6 µM (inactive),18.6 µM (inactive),16.1 µM (inactive),20.9 µM (inactive),18.6 µM (inactive),20.3 µM (inactive),16 µM (inactive),17.3 µM (inactive),15.9 µM (inactive),17.5 µM (inactive),15 µM (inactive),15.7 µM (inactive),–,–
Cc1ccc2nc(-c3ccc(-c4nc5ccc(C)cc5o4)c(O)c3)oc2c1,–,> 100 µM (inactive),> 100 µM (inactive),> 100 µM (inactive),> 100 µM,–,> 100 µM (inactive),> 100 µM (inactive),–,–,> 100 µM (inactive),> 100 µM (inactive),> 100 µM (inactive),> 100 µM (inactive),> 100 µM (inactive),> 100 µM (inactive),> 100 µM (inactive),> 100 µM (inactive),–
O=C(Oc1ccc(C(c2c(O)c3ccccc3oc2=O)c2c(O)c3ccccc3oc2=O)cc1)c1ccc(C(=O)c2ccccc2)cc1,–,29.3 µM (inactive),24.1 µM (inactive),25.3 µM (inactive),37.2 µM,27.3 µM (inactive),17.8 µM (inactive),23.6 µM (inactive),16.7 µM (inactive),38.4 µM (inactive),25.6 µM (inactive),19.6 µM (inactive),22.6 µM (inactive),–,43 µM (inactive),–,29.4 µM (inactive),36.1 µM (inactive),15.4 µM (inactive)
O=C(CNCc1ccccc1)Oc1c(Cl)c(Cl)c(Cl)c(Cl)c1Cl,26 µM (inactive),–,76.7 µM (inactive),30.4 µM (inactive),25.4 µM,74.8 µM (inactive),29.2 µM (inactive),28.5 µM (inactive),22.4 µM (inactive),44.1 µM (inactive),37.5 µM (inactive),21.5 µM (inactive),–,–,31.2 µM (inactive),–,38.5 µM (inactive),–,25.3 µM (inactive)
O=C(ON=c1c2ccccc2ccc2ccccc12)c1cc([N+](=O)[O-])cc([N+](=O)[O-])c1,16.8 µM (inactive),50.5 µM (inactive),> 100 µM (inactive),49.8 µM (inactive),53 µM,> 100 µM (inactive),> 100 µM (inactive),70.6 µM (inactive),89.9 µM (inactive),38.2 µM (inactive),> 100 µM (inactive),63.4 µM (inactive),25.5 µM (inactive),–,67.1 µM (inactive),23.1 µM (inactive),65 µM (inactive),83.8 µM (inactive),–
CC(C)(C)C(=O)C(C(c1ccccc1)N1CCOCC1)N1CCOCC1 (stereo not given),> 100 µM (inactive),–,> 100 µM (inactive),> 100 µM (inactive),> 100 µM,> 100 µM (inactive),> 100 µM (inactive),> 100 µM (inactive),> 100 µM (inactive),> 100 µM (inactive),> 100 µM (inactive),> 100 µM (inactive),> 100 µM (inactive),> 100 µM (inactive),> 100 µM (inactive),> 100 µM (inactive),–,> 100 µM (inactive),> 100 µM (inactive)
CC1(C)O[C@H]2Cn3c(c(C#N)c4ccccc43)[C@H]2O1,> 100 µM (inactive),> 100 µM (inactive),> 100 µM (inactive),> 100 µM (inactive),> 100 µM,–,> 100 µM (inactive),> 100 µM (inactive),> 100 µM (inactive),> 100 µM (inactive),> 100 µM (inactive),> 100 µM (inactive),–,–,> 100 µM (inactive),> 100 µM (inactive),> 100 µM (inactive),> 100 µM (inactive),> 100 µM (inactive)
O=c1oc2ccc3ccccc3c2cc1-c1nnc(-c2ccc([N+](=O)[O-])cc2)[nH]1,91.2 µM (inactive),> 100 µM (inactive),17.2 µM (inactive),> 100 µM (inactive),> 100 µM,–,44.6 µM (inactive),29.6 µM (inactive),20.7 µM (inactive),> 100 µM (inactive),0.0807 µM (active),> 100 µM (inactive),> 100 µM (inactive),53.6 µM (inactive),–,–,> 100 µM (inactive),> 100 µM (inactive),92 µM (inactive)
NC(=S)N/N=c1\cc(C(=O)Nc2ccc([N+](=O)[O-])cc2[N+](=O)[O-])oc2ccccc12,–,> 100 µM (inactive),> 100 µM (inactive),> 100 µM (inactive),> 100 µM,> 100 µM (inactive),> 100 µM (inactive),> 100 µM (inactive),49.8 µM (inactive),> 100 µM (inactive),> 100 µM (inactive),> 100 µM (inactive),> 100 µM (inactive),–,> 100 µM (inactive),43.5 µM (inactive),> 100 µM (inactive),> 100 µM (inactive),> 100 µM (inactive)
Cc1ccc(/C(Cl)=C/C=C(C#N)C#N)cc1,3.85 µM (inactive),1.8 µM (inactive),1.98 µM (inactive),21.9 µM (inactive),2.1 µM,2.61 µM (inactive),6.32 µM (inactive),4.18 µM (inactive),10.1 µM (inactive),3.22 µM (inactive),5.9 µM (inactive),4.51 µM (inactive),0.441 µM (active),–,3.72 µM (inactive),3.26 µM (inactive),30.4 µM (inactive),–,1.98 µM (inactive)
NS(=O)(=O)c1nnc(NC(=S)NC(=O)Nc2ccc(Cl)c(Cl)c2)s1,22.6 µM (inactive),21.2 µM (inactive),22.8 µM (inactive),32 µM (inactive),19.7 µM,19.1 µM (inactive),31.8 µM (inactive),36.3 µM (inactive),26.3 µM (inactive),19.5 µM (inactive),27.5 µM (inactive),17.5 µM (inactive),28.1 µM (inactive),–,26.7 µM (inactive),13.5 µM (inactive),38 µM (inactive),–,14.8 µM (inactive)
COc1ccc(N2C(=O)c3cc(C)cnc3S2(=O)=O)cc1,> 100 µM (inactive),> 100 µM (inactive),> 100 µM (inactive),> 100 µM (inactive),> 100 µM,> 100 µM (inactive),> 100 µM (inactive),> 100 µM (inactive),> 100 µM (inactive),> 100 µM (inactive),> 100 µM (inactive),> 100 µM (inactive),> 100 µM (inactive),–,> 100 µM (inactive),> 100 µM (inactive),–,> 100 µM (inactive),> 100 µM (inactive)
CC(=O)/C(=C\NC(=S)Nc1ccc(S(N)(=O)=O)cc1)C(=O)Nc1ccccc1C,–,44 µM (inactive),95.3 µM (inactive),60.4 µM (inactive),41.3 µM,37.1 µM (inactive),51.9 µM (inactive),45 µM (inactive),66.5 µM (inactive),36.9 µM (inactive),99.8 µM (inactive),35.2 µM (inactive),16 µM (inactive),–,71 µM (inactive),37.3 µM (inactive),40.7 µM (inactive),–,41.7 µM (inactive)
CC1(C)OC2C(O)CN3CCS[C@H]3C2O1 (stereo not given in full),> 100 µM (inactive),> 100 µM (inactive),> 100 µM (inactive),> 100 µM (inactive),> 100 µM,> 100 µM (inactive),> 100 µM (inactive),> 100 µM (inactive),> 100 µM (inactive),> 100 µM (inactive),> 100 µM (inactive),> 100 µM (inactive),> 100 µM (inactive),> 100 µM (inactive),–,> 100 µM (inactive),–,–,> 100 µM (inactive)
Cc1occc(=O)c1O [MALTOL],> 100 µM (inactive),> 100 µM (inactive),> 100 µM (inactive),> 100 µM (inactive),4.25 µM,–,> 100 µM (inactive),> 100 µM (inactive),> 100 µM (inactive),> 100 µM (inactive),> 100 µM (inactive),–,> 100 µM (inactive),–,5 µM (inactive),> 100 µM (inactive),> 100 µM (inactive),> 100 µM (inactive),> 100 µM (inactive)
Sc1nnc(C(c2ccccc2)c2ccccc2)[nH]1,> 100 µM (inactive),> 100 µM (inactive),> 100 µM (inactive),> 100 µM (inactive),> 100 µM,> 100 µM (inactive),> 100 µM (inactive),> 100 µM (inactive),> 100 µM (inactive),–,> 100 µM (inactive),> 100 µM (inactive),> 100 µM (inactive),> 100 µM (inactive),> 100 µM (inactive),–,–,–,53.2 µM (inactive)
Cn1c2c(c3c(=O)[nH]ncc31)CCCc1ccccc1-2,22.5 µM (inactive),16.1 µM (inactive),18.9 µM (inactive),27.2 µM (inactive),29.8 µM,–,20.8 µM (inactive),27.9 µM (inactive),11.8 µM (inactive),37.4 µM (inactive),29.2 µM (inactive),28.7 µM (inactive),34.5 µM (inactive),22.4 µM (inactive),25.6 µM (inactive),12.9 µM (inactive),25 µM (inactive),–,18.2 µM (inactive)
